Key:
[1] = Imine (Schiff's base) formation of 2-DG with L-lysine in buffer; type: physicochemical
Description: The present invention is further illustrated by the following figures and examples, without being restricted thereto. • Fig. 1: Imine formation of 2-deoxy-D-glucose (2-DG) with L-lysine in citric acid•Na2HPO4 buffer (pH 7) at different 2-DG concentrations incubated at 37 °C. Indicated values are means (n=4) ± SEM. • Fig. 2: Imine formation of 2-deoxy-D-glucose (2-DG, 35mg/mL) with L-lysine (O.lmg/mL) in citric acid•Na2HPO4 buffer at different pH values incubated at 37 °C. Indicated values are means (n=4) ± SEM. • Fig. 3: Imine formation of 2-deoxy-D-glucose (2-DG, 35mg/mL) with L-lysine (O.lmg/mL) in citrate buffer at different pH values incubated at 37 °C. Indicated values are means (n=4) ± SEM. • Fig. 4: Imine formation of 2-deoxy-D-glucose (2-DG, 35mg/mL) with L-lysine (O.lmg/mL) in tartrate buffer at different pH values incubated at 37 °C. Indicated values are means (n=4) ± SEM. • Fig. 5: Imine formation of 2-deoxy-D-glucose (2-DG, 35mg/mL) with L-lysine (O.lmg/mL) in maleate buffer at different pH values incubated at 37 °C. Indicated values are means (n=4) ± SEM. • Fig. 6: Mucus penetration of 2-deoxy-D-glucose (2-DG), 2-fluoro-2-deoxy-D-glucose (2-FDG) or 2-fluoro-2-deoxy-D-mannose (2-FDM) (all 35mg/mL) in citrate buffer at pH5 and pH7, incubated for 30min at 37 °C. […]

[2] = Mucus penetration through mucus on a semipermeable membrane, measured via mass spectrometry; type: in vitro ADME; conditions: 35mg/mL in citrate buffer, pH5 versus pH7, 30min at 37 °C (Fig. 6)
Description: The present invention is further illustrated by the following figures and examples, without being restricted thereto. • Fig. 1: Imine formation of 2-deoxy-D-glucose (2-DG) with L-lysine in citric acid•Na2HPO4 buffer (pH 7) at different 2-DG concentrations incubated at 37 °C. Indicated values are means (n=4) ± SEM. • Fig. 2: Imine formation of 2-deoxy-D-glucose (2-DG, 35mg/mL) with L-lysine (O.lmg/mL) in citric acid•Na2HPO4 buffer at different pH values incubated at 37 °C. Indicated values are means (n=4) ± SEM. • Fig. 3: Imine formation of 2-deoxy-D-glucose (2-DG, 35mg/mL) with L-lysine (O.lmg/mL) in citrate buffer at different pH values incubated at 37 °C. Indicated values are means (n=4) ± SEM. • Fig. 4: Imine formation of 2-deoxy-D-glucose (2-DG, 35mg/mL) with L-lysine (O.lmg/mL) in tartrate buffer at different pH values incubated at 37 °C. Indicated values are means (n=4) ± SEM. • Fig. 5: Imine formation of 2-deoxy-D-glucose (2-DG, 35mg/mL) with L-lysine (O.lmg/mL) in maleate buffer at different pH values incubated at 37 °C. Indicated values are means (n=4) ± SEM. • Fig. 6: Mucus penetration of 2-deoxy-D-glucose (2-DG), 2-fluoro-2-deoxy-D-glucose (2-FDG) or 2-fluoro-2-deoxy-D-mannose (2-FDM) (all 35mg/mL) in citrate buffer at pH5 and pH7, incubated for 30min at 37 °C.
We measured the mucus penetration potential in the following manner: After applying mucus onto a semipermeable membrane, formulations containing 2-DG or analogues at indicated pH were applied onto the mucus. Penetrated 2-DG or analogues was measured via mass spectrometry.

Compound | Imine formation ([1]; 2-DG 35mg/mL, L-lysine (O.lmg/mL), acidic pH (pH < 7.0) in citric acid•Na2HPO4, citrate, tartrate, maleate buffers, 37 °C (Fig. 2-5)) | Imine formation ([1]; with L-lysine in citric acid•Na2HPO4 buffer (pH 7), different 2-DG concentrations, 37 °C (Fig. 1)) | Mucus penetration [2]
O=CC[C@@H](O)[C@H](O)[C@H](O)CO [2-DG, 2-deoxy-D-glucose] | distinct lowering in the formation of Schiff's bases | lead to the formation of Schiff's bases (imines) | increased mucus penetration properties
O=C[C@H](F)[C@@H](O)[C@H](O)[C@H](O)CO [2-FDG, 2-fluoro-2-deoxy-D-glucose] | – | – | increased mucus penetration properties
O=C[C@@H](F)[C@@H](O)[C@H](O)[C@H](O)CO [2-FDM, 2-fluoro-2-deoxy-D-mannose] | – | – | increased mucus penetration properties
